{
  "source": "patent US10570176B2",
  "about": "“Anti-hepatitis B virus X protein polypeptide pharmaceutical” (priority 2015, dated 2020)",
  "system": "HBV transgenic mice",
  "experiment": "Serum HBV DNA copy number in HBV transgenic mice, real-time PCR",
  "format": "in vivo",
  "settings": "for effective rate (serum HBV DNA): tail i.v. daily",
  "excerpt": "HBV transgenic mice were purchased from Guangzhou Junketaite Pharmaceutical Technology Co., Ltd. The animal model is a 1.3 copies high expressing replicative form HBV whole-genome transgenic mice Tg (HBV 1.3 genome) Swb established using microinjection method by Guangzhou Junketaite Pharmaceutical Technology Co., Ltd. Serum HBsAg and HBeAg can be analyzed with common ELISA kit; serum HBV DNA of 93.93% positive transgenic mice is 10^4˜10^6 copy/mL; liver tissues in immunohistochemistry have HBsAg (cytoplasmic type) and HBcAg (karyotype) expression. […] This makes a good foundation for the transgenic model to be used in evaluating anti-HBV drugs.\nPrepare D-TTK001 aseptically. Administer 2.5 mg/kg (10 mice) or 5.0 mg/kg (42 mice) based on mice weight through tail intravenous injection in a volume of 50 μL. Administer 50 μL of sterile PBS to blank control group (10 mice). Mice are 6-8 months old, half male and half female. Inject daily for 3 weeks (21 days in total). Take artery blood from mice tail before administration for future measurement of HBV DNA content in mice blood, record as T0 group. Take artery blood from mice tail after one week (T1+ group), two weeks (T2+ group), and three weeks (T3+ group) of administration. Take blood after one week of stopping administration (T4 group). Blood samples were standed in room temperature for 2-4 hours to prepare serum. Store samples in −80° C. refrigerator for future measurement of HBV DNA content in mice blood.\n(i) Preparation of test samples: Take out the test samples from −80° C. refrigerator. Place it at room temperature for balancing. Take corresponding amount of reaction liquid, enzyme mix and internal standard by proportion (reaction liquid 38 μL per serving+enzyme mix 2 μL per serving+internal standard 0.2 μL per serving) according to numbers of test sample, negative control sample and reference sample, mix sufficiently as PCR-mix. Sample treatment (negative control, positive control quantitative reference and test samples are treated synchronously): Add 5 μL of cell nucleic releaser into each PCR reaction tube, then add 5 μL test sample into each tube, absorb back and forth for 3-5 times and mix; after more than 10 minutes interval, add 40 μL of PCR-mix into each tube, close the tubes with caps, centrifuge at 2000 rpm for 30 seconds.\nUtilizing real time PCR HBV DNA assay kit manufactured by Sun Yat-sen University Daan Gene Co., Ltd. according to the manufacturer's specification as followed: Place PCR reaction tube into sample cell of PCR instrument, set negative control, positive control, quantitative references A-D and test sample in corresponding order, and then set sample name and concentration of quantitative reference. Selection of fluorescence detection channel: for example, in ABI 7300 instrument, i) select FAM channel (reporter: FAM, quencher: none) to detect HBV-DNA; ii) select HEX/VIC channel (reporter: HEX/VIC, quencher: none) to detect HBV-internal standard; iii) set passive reference as ROX.\nSet analysis conditions: adjust start value, stop vale of Baseline and Value of Threshold according to analyzed image (arbitrary adjustable by user according to actual needs, start value can be 1˜10, stop value can be 5˜10, Value can be 0.01˜0.2) to optimize standard curve in “Std curve” window, i.e., correlation between −1.0˜−0.97. Select “Analyze” in “Analysis” menu for automatic result analysis. Record value (C) of unknown variable in “Tray” window. “C” indicates concentration or content of the sample.",
  "note": "Non-standard residues stand in square brackets, D forms with d. Residues, ends and D or L forms follow the SMILES beside them.",
  "data": [
    {"smiles": "CSCC[C@@H](NC(=O)[C@H](NC(=O)[C@@H](C)NC(=O)[C@@H](CO)NC(=O)CN)C(C)C)C(=O)N[C@H](Cc1ccccc1)C(=O)N[C@H](CO)C(=O)N[C@H](CO)C(=O)N[C@H](CCCCN)C(=O)N[C@H](CCC(=O)O)C(=O)N[C@H](CCCNC(=N)N)C(=O)NCC(=O)O", "note": "[D-TTK001, Gly-D-Ser-D-Ala-D-Val-D-Met-D-Phe-D-Ser-D-Ser-D-Lys-D-Glu-D-Arg-Gly] (H-G[dS][dA][dV][dM][dF][dS][dS][dK][dE][dR]G-OH; N-terminus and C-terminus assumed)", "values": [
      {"measurement": "copy number of HBV DNA in serum", "setting": "2.5 mg/kg and 5.0 mg/kg, tail intravenous injection", "value": "clearly reduced"},
      {"measurement": "effective rate (serum HBV DNA)", "setting": "2.5 mg/kg group, from one week (T1+ group), 3 out of 10 mice", "value": 30, "unit": "%"},
      {"measurement": "effective rate (serum HBV DNA)", "setting": "5.0 mg/kg group, 23 out of 42 mice", "value": 54.8, "unit": "%"},
      {"measurement": "time dependent decreasing effective rate", "setting": "5.0 mg/kg group, 7 out of 23 mice", "value": 30.4, "unit": "%"},
      {"measurement": "effective rate (serum HBV DNA) from one week (T1+ group)", "setting": "5.0 mg/kg group, 18 out of 39 mice", "value": 46.2, "unit": "%"}
    ]}
  ]
}
